Like-named read-outs stand apart in the source and are kept apart here.
How the values were obtained:
MAO-B [1] = target: T1, MAO-B (Rattus norvegicus, UniProt P19643); test: Inhibition of MAO activity in vivo, acute treatment, MAO-B; design: in a rat brain preparation of MAO; host or cells: rat brain preparation; settings: for IC-50 MAO-B: I.P., 1 h after dose
T1 sequence (P19643 1-520): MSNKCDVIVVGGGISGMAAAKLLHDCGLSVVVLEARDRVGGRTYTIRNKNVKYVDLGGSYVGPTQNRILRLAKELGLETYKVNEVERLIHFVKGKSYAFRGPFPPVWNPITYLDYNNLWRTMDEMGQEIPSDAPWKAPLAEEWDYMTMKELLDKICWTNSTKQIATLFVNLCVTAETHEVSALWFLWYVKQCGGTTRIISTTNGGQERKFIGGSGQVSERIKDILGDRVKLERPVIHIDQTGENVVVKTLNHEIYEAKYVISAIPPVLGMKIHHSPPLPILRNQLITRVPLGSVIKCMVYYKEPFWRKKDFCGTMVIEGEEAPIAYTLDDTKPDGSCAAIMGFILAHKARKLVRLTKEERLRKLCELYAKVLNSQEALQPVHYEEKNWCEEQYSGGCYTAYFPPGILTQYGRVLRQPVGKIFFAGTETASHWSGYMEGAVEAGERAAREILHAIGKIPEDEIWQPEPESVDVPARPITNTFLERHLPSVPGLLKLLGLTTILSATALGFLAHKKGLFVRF

MAO-A = target: T2, MAO-A (Rattus norvegicus, UniProt P21396); test: Inhibition of MAO activity in vivo, acute treatment, MAO-A; settings: for IC-50 MAO-A: rat
T2 construct: MAO activity determined in brain and liver; from tissue; host or cells: brain and liver of male Sprague-Dawley-derived rats
T2 sequence (P21396 1-526): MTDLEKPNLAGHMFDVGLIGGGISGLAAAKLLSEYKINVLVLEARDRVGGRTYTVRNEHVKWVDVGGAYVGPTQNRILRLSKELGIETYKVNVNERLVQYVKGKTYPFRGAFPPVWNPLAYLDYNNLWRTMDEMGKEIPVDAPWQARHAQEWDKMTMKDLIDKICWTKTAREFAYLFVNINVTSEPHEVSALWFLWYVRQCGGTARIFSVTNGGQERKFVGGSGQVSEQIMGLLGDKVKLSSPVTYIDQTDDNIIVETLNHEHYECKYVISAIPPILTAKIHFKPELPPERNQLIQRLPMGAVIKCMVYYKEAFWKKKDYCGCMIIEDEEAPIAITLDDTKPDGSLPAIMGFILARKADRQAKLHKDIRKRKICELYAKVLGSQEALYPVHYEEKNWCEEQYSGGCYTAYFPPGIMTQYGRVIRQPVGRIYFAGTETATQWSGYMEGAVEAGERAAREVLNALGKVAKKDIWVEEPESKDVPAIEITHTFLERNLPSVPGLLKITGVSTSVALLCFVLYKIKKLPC

[2] = system: tyramine pressor response in conscious rats; test: Potentiation of tyramine pressor effect in conscious rats; assay type: in vivo, rat
Method: The left carotid artery and jugular vein were cannulated with fine polytene tubing (artery) or fine silicone rubber tubing connected to polyethylene tubing (vein), the distal end of which was brought under the skin to an anchor point behind the neck. The tubing was filled with heparinized saline solution, and plugged with a fine steel rod. The animals were treated with 2. mg chloramphenicol by intramuscular injection and allowed to recover from the operation overnight. The following day, the rats were placed in a high-walled container permitting free movement. […] Following an equilibration period of 30 to 40 minutes, tyramine injections (50 or 100 μg) were given, and blood pressure-responses recorded. An interval of at least 15 minutes was maintained between injections after return of blood pressure to control values. Control pressor responses were established, then one of the drugs was injected intraperitoneally, and tyramine responses were repeated over the next 4 hours. The area under the blood pressure response curve was estimated, and the ratio of this area after treatment to before treatment and to 1 to 3 hours after injection of the compounds, was determined using the average of 3 to 4 values obtained in the control period.

[3] = system: MPTP-induced striatal DA and DOPAC depletions in mice; test: Suppression of MPTP-induced dopaminergic toxicity (striatal DA and DOPAC); assay type: in vivo, mouse; settings: pretreatment 1 h before MPTP 30 mg/kg s.c., PAI […] i.p., deprenyl 5 mg/kg i.p., 5 days
MAO-B [4] = target: T1, MAO-B; settings: rat whole brain, 1 mg/kg i.p. single dose
Method: Activity of MAO-B was determined in whole brain tissues as described hereinabove.

MAO-B [5] = target: T1, MAO-B; test: Inhibition of MAO activity in vitro, rat brain homogenate, PEA substrate; assay type: biochemical; design: in a rat brain preparation of MAO; host or cells: rat brain preparation
Method: The MAO enzyme source was a homogenate of rat brain in 0.3M sucrose, which was centrifuged at 600 g for 15 minutes. […] Substrate concentrations used were 50 uM (PEA) and 1 mM (5-HT). In the case of PEA, enzyme concentration was chosen so that not more than 10% of the substrate was metabolized during the course of the reaction. […] The column was washed with 1.5 ml water, the eluates pooled and the radioactive content determined by liquid scintillation spectrometry. Since the amine substrates are totally retained on the column, radioactivity in the eluate indicates the production of neutral and acidic metabolites formed as a result of MAO activity. Activity of MAO in the sample was expressed as a percentage of control activity in the absence of inhibitors after subtraction of appropriate blank values. The activity determined using PEA as substrate is referred to as MAO-B, and that determined using 5-HT as MAO-A.

[6] = system: passive avoidance response in young rats; test: Passive avoidance test in young rats (memory); assay type: in vivo, rat
Description: The effect of R(+)-PAI and S(−)-PAI on the improvement or restoration of memory was investigated in the passive avoidance test. If the drug is effective, it increases the latency of response to enter a dark compartment or chamber where an electroshock has been experienced earlier by the rat being tested. The latency of the maximal response is 300 seconds.

SMILES: C#CCN[C@@H]1CCc2ccccc21 [R(+)PAI, R(+)-N-propargyl-1-aminoindan]
- inhibition of MAO-B in brain and liver (MAO-B [1]; 1 mg/kg): complete inhibition
- IC-50 MAO-B (MAO-B [1]; brain): 0.07 mg/kg
- IC-50 MAO-B (MAO-B [1]; liver): 0.06 mg/kg
- inhibition of MAO-A (MAO-A; rat brain, 0.5 mg/kg oral): no detectable inhibition
- IC-50 MAO-A (MAO-A; I.P., brain, 1 h after dose): 1.2 mg/kg
- IC-50 MAO-A (MAO-A; I.P., liver, 1 h after dose): 5 mg/kg
- IC-50 MAO-A (MAO-A; P.O., brain, 2 h after dose): >5 mg/kg
- IC-50 MAO-A (MAO-A; P.O., liver, 2 h after dose): >5 mg/kg
- potentiation of tyramine pressor response (in words) ([2]; 1 mg/kg): no significant potentiation
- potentiation of tyramine pressor response (in words) ([2]; 5 mg/kg): significant potentiation
- striatal DOPAC [3]: 6.0 ± 0.3 ng/mg protein
- time of maximal inhibition of MAO-B after injection (MAO-B [4]): 6 h
- times more active for inhibition of MAO-B than MAO-A (MAO-B [5]): 29 times
- times more active than S(−)PAI as inhibitor of MAO-B (MAO-B [5]): ~7,000 times
- times more active than S(−)PAI as inhibitor of MAO-B (MAO-B [5]; listed as R(+)-PAI): about 7000 times
- percent increase of latency After Electroshock vs corresponding group ([6]; Protocol A, anoxia-lesioned rats): 19%
- percent increase of latency After Electroshock vs corresponding group ([6]; Protocol A, control rats): +9%
- percent increase of latency After Electroshock vs corresponding group ([6]; Protocol B, anoxia-lesioned rats): +15%
- percent increase of latency After Electroshock vs corresponding group ([6]; Protocol B, control rats): +23%
